Eight molecules from patent US7514424B2, “Substituted 4-(4-piperidin-4-yl-piperazin-1-yl)-azepane derivatives and their use as neurokinin antagonists” (Janssen Pharmaceutica N.V., priority 2002, dated 2009) can be followed below.

What all share (assay): Signal transduction (intracellular Ca++, FLIPR), functional antagonistic activity
What all share (format): cell-based

One assay addresses h-NK1 (Homo sapiens, UniProt P25103). As to conditions: Ca++ peak, read-out: pIC50 h-NK1 (converted). How it is done:
(§1) This test evaluates in vitro functional NK1 antagonistic activity. For the measurements of intracellular Ca^++ concentrations the cells were grown on 96-well (black wall/transparent bottom) plates from Costar for 2 days until they reached confluence. The cells were loaded with 2 μM Fluo3 in DMEM containing 0.1% BSA and 2.5 mM probenecid for 1 h at 37° C. They were washed 3× with a Krebs buffer (140 mM NaCl, 1 mM MgCl2×6H2O, 5 mM KCl, 10 mM glucose, 5 mM HEPES; 1.25 mM CaCl2; pH 7.4) containing 2.5 mM probenecid and 0.1% BSA (Ca^++-buffer). The cells were preincubated with a concentration range of antagonists for 20 min at RT and Ca^++-signals after addition of the agonists were measured in a Fluorescence Image Plate
(§2) Reader (FLIPR from Molecular Devices, Crawley, England). The peak of the Ca^++-transient was considered as the relevant signal and the mean values of corresponding wells were analysed as described below.
(§3) The sigmoidal dose response curves were analysed by computerised curve-fitting, using the GraphPad Program. The EC50-value of a compound is the effective dose showing 50% of maximal effect. For mean curves the response to the agonist with the highest potency was normalised to 100%. For antagonist responses the IC50-value was calculated using non-linear regression.
(§4) The last colums indicates—without being limited thereto—for which action the compounds might be most suitable. Of course, since for some neurokinin receptors no data was determined, it is obvious that these compounds might be attributed to another suitable use.

A further assay addresses T1, h-NK2 (Homo sapiens, UniProt P21452).
T1 sequence (P21452 1-398): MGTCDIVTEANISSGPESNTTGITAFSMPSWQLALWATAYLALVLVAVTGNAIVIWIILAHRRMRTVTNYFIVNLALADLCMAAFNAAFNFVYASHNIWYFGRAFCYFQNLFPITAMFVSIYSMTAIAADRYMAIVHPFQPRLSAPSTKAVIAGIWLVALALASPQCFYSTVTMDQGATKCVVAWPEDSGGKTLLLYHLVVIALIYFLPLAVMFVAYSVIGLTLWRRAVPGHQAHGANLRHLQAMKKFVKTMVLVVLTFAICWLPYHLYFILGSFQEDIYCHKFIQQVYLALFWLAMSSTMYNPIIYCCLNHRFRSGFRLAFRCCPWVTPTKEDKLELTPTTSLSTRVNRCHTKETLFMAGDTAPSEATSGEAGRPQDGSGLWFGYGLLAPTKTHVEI
As to conditions: Ca++ peak, read-out: pIC50 h-NK2 (converted). How it is done:
[Worded in the source for another target; this target is reported under the same test.] as §1, §2, §3, §4

The next assay addresses T2, h-NK3 (Homo sapiens, UniProt P29371).
T2 sequence (P29371 1-465): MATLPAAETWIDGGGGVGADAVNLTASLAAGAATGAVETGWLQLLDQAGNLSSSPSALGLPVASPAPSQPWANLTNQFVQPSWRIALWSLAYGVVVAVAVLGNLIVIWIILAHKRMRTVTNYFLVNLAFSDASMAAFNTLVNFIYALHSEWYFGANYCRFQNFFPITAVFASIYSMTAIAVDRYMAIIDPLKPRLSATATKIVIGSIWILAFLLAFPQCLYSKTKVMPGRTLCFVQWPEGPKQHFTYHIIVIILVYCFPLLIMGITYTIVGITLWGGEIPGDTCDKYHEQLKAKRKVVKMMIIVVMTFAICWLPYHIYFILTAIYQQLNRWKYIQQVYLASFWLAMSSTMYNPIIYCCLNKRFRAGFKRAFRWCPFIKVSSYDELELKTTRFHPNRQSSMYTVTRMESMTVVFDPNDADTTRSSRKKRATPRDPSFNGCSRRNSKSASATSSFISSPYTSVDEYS
As to conditions: Ca++ peak, read-out: pIC50 h-NK3 (converted). How it is done: [Worded in the source for another target; this target is reported under the same test.] as §1, §2, §3, §4

Sequence of h-NK1 (P25103 whole entry): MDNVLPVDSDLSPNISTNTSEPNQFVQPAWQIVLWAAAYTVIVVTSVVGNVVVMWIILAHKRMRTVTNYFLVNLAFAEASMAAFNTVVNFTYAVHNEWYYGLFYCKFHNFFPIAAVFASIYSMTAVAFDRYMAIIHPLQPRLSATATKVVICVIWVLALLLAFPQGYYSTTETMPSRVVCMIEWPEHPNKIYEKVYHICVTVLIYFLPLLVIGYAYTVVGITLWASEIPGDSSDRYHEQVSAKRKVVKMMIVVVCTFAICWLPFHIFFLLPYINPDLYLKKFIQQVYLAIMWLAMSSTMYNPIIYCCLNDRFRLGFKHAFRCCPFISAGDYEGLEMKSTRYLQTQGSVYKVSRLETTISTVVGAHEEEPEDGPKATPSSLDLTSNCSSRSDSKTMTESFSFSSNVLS

As to `O=C(c1ccccc1)N1CCCC(N2CCN(C3CCN(C(=O)c4cc(C(F)(F)F)cc(C(F)(F)F)c4)C(Cc4ccccc4)C3)CC2)CC1` (stereo not shown) [Compound 3], the IC50 on h-NK1 is 200 nM. Take `Cc1cccc(C(=O)N2CCCC(N3CCN(C4CCN(C(=O)c5cc(C(F)(F)F)cc(C(F)(F)F)c5)C(Cc5ccccc5)C4)CC3)CC2)c1` (stereo not shown) [Compound 9]: on h-NK1, the IC50 is 302 nM. For the molecule `O=C(c1cccc(F)c1)N1CCCC(N2CCN(C3CCN(C(=O)c4cc(C(F)(F)F)cc(C(F)(F)F)c4)C(Cc4ccccc4)C3)CC2)CC1` (stereo not shown) [Compound 6], the IC50 is 158 nM at h-NK1, 9.33 µM at h-NK2 and 1.35 µM on h-NK3. Turning to `CCOC(=O)N1CCCC(N2CCN(C3CCN(C(=O)c4cc(C(F)(F)F)cc(C(F)(F)F)c4)C(Cc4ccccc4)C3)CC2)CC1` (stereo not shown) [Compound 4], on h-NK1, the IC50 was 166 nM. Turning to `CC(C)(C)OC(=O)N1CCCC(N2CCN(C3CCN(C(=O)c4cc(C(F)(F)F)cc(C(F)(F)F)c4)C(Cc4ccccc4)C3)CC2)CC1` (stereo not shown) [Compound 1], the values for the IC50 at h-NK1 and at h-NK3 were 32.4 nM and 10 µM, respectively. As for `O=C(c1ccoc1)N1CCCC(N2CCN(C3CCN(C(=O)c4cc(C(F)(F)F)cc(C(F)(F)F)c4)C(Cc4ccccc4)C3)CC2)CC1` (stereo not shown) [Compound 7], the figures for the IC50 on h-NK1 and on h-NK3 were 28.8 nM and 1.91 µM, respectively. The corresponding values for `Cc1cc(C(=O)N2CCCC(N3CCN(C4CCN(C(=O)c5cc(C(F)(F)F)cc(C(F)(F)F)c5)C(Cc5ccccc5)C4)CC3)CC2)no1` (stereo not shown) [Compound 8] are 28.2 nM and 10 µM. With `O=C(c1ccc(F)c(F)c1)N1CCCC(N2CCN(C3CCN(C(=O)c4cc(C(F)(F)F)cc(C(F)(F)F)c4)C(Cc4ccccc4)C3)CC2)CC1` (stereo not shown) [Compound 5], the IC50 at h-NK1 is 148 nM.
